Measured values reported in US11278534B2, “Enantiomers of substituted thiazoles as antiviral compounds” (Innovative Molecules GmbH, priority 2017, dated 2022).
≈ marks a conversion by molar mass, not a printed value.

How the values were obtained:
[1] = system: HSV-1; assay: activity selectivity assay, HSV-1 infected Vero cells; assay type: cell-based; settings: Human alphaherpesvirus 1
Description: (§1) HSV (HSV-1 Walki, HSV-1F, HSV-2 MS, HSV clinical isolates and HSV resistant strains) was cultivated on Vero cells (ATCC CCL-81) under the following conditions: The cells were grown in M199 medium (5% foetal calf serum, 2 mM glutamine, 100 IU/mL penicillin, 100 μg/mL streptomycin) in cell culture bottles at 37° C. and 5% CO2. The cells were splitted twice per week (1:4). For the infection, the medium was removed, the cells were washed with Hank's solution, detached using 0.05% trypsin, 0.02% EDTA and incubacted at a density of 4×10^5 cells/mL under the above-mentioned conditions for 24 h. The medium was removed and the virus solution was added at an m.o.i of <0.05 in a volume of 2 mL per 175 cm^2 surface. The infected cells were incubated at 37° C., 5% CO2 for 1 h and then the medium was made up to a volume of 50 mL per 175 cm^2 bottle. […] The virus was released by freezing (−80° C.) and thwawing (37° C.) the infected cultures twice. Cell debris was removed by centrifugation (300 g, 10 min, 4° C.) and the supernatant was frozen in aliquots at −80° C.
(§2) The virus titre was determined using a plaque assay. To this end, Vero cells were seeded in 24-well plates at a density of 4×10^5 cells per well and, after 24 h of incubation (37° C., 5% CO2) infected with 100 μL of inoculum (dilutions (10^−2 to 10^−12) of the virus stock). 1 h after the infection, the medium was removed and the cells were covered with 1 mL of overlay medium (0.5% methylcellulose, 0.22% sodium bicarbonate, 2 mM glutamine, 100 IU/mL penicillin, 100 μg/mL streptomycin, 5% foetal calf serum in MEM-Eagle medium with Earl's salt) and incubated for 3 d in a cell incubator at (37° C., 5% CO2). The cells were then fixated using 4% formaline for 1 h, washed with water, stained with Giemsa for 30 min and then washed and dried. Using a plaque viewer, the virus titre was determined.
(§3) The antiviral action was determined using a patented (DE10235967 and WO2004/015416) and subsequently published activity selectivity assay (G. Kleymann et al. J. Biomol. Screen. 2004; 9, 578) in 96- or 384-well mictrotitre plates using various cell lines of neuronal, lymphoid and epithelial origin, such as, for example, Vero (african green monkey kidney cells), MEF (murine embryonal fibroblasts), HELF (human embryonal fibroblasts), NT2 (human neuronal cell line) or Jurkat (human lymphoid T-cell line). The relevant experimental details of the above mentioned patent and publication to evaluate the antiviral activity of the invention (disclosed compounds) are described below.
(§4) The effect of the substances on the spreading of the cytopathogenic effect was determined in comparision to the reference compound acyclovir-sodium (Zovirax™), a clinically approved anti-herpes chemotherapeutic.
(§5) The compounds (50 mM stock solution dissolved in DMSO) are examined on microtitre plates (for example 96-well flat bottom cell culture plates) at a final concentration of 250 to 0.5 μM or, in case of potent antiviral compounds, 250 to 0.5 nM in 2 to 4 replications (4 to 2 substances per plate). Also examined are toxic and cytostatic effects or precipitation of the compounds. […]

[2] = aqueous solubility (PBS, pH 7.4), shake flask; assay type: physicochemical
Description: The aqueous solubility (PBS, pH 7.4) was determined at Eurofins, Cerep, Panlabs according to C. A. Lipinski et al. Adv. Drug Del. Rev. 1997:46, 3. Measurement of the aqueous solubility was performed according to Lipinski, C. A. et al. Adv. Drug Del. Rev. 1997:46, 3. The relevant information from the literature is described below. […] In addition, chromatographic purity (%) was defined as the peak area of the principal peak relative to the total integrated peak area in the HPLC chromatogram of the calibration standard.

[3] = system: HSV-1; assay: animal model, intranasal HSV-1 infection of mice, survival; assay type: in vivo, BALB/cABom strain; settings: Human alphaherpesvirus 1, inhaled or nasal, 120 h; HSV-1, mice, treatment for 5 days; read-out: ED50 (50% of the infected animals survive)
Description: (§6) Animal experiments were performed according to patent WO2001/047904 or subsequent publications (U. A. K. Betz et al. Antimicrob. Agents Chemother. 2002:46, 1766 or G. Kleymann et al. Nat. Med. 2002; 8, 392). The relevant experimental details of the above mentioned patent and publication to evaluate the antiviral activity of the invention (disclosed compounds) in-vivo (animal models) are described below.
(§7) 6 week-old female mice, BALB/cABom strain were obtained from a commercial breeder.
(§8) Infection: The animals were anaesthetized with Et2O in a sealed glass vessel. 50 μL of a dilution of the virus stock (infection dose 5×10^4 PFU (Plaque forming units)) were introduced into the nose of the anaesthetized animals using a pipette. In 90 to 100% of the animals, this infection dose causes death by generalized infection with prominent repiratory and central-nervous symptoms on average after 5 to 8 days.
(§9) 6 hours after infection animals were treated with doses of 0.1-150 mg/kg of body mass, 3 times per day at 7 am, […] (tid) or 2 times per day at 7 am and […] (bid) or once daily at […] (od) for a period of 5 days. […] After the last administration, the animals were monitored further and the time of death was determined.

[4] = biological target: Human Carboanhydrase II (Homo sapiens, UniProt P00918); assay: carbonic anhydrase activity assay (pH indicator method); assay type: biochemical; settings: for carbonic anhydrase inhibition: result in words
[5] = system: HSV-2; assay: animal model, intranasal HSV-2 infection of mice, survival; assay type: in vivo, BALB/cABom strain; settings: Human alphaherpesvirus 2, inhaled or nasal, 120 h; HSV-2, mice, treatment for 5 days; read-out: ED50 (50% of the infected animals survive)
Description: as §6, §7, §8, §9

[6] = system: HSV-2; assay: activity selectivity assay, HSV-2 infected Vero cells; assay type: cell-based; settings: Human alphaherpesvirus 2
Description: as §1, §2, §3, §4, §5

[7] = system: HSV-1 ACV resistant; assay: activity selectivity assay, HSV-1 ACV resistant; assay type: cell-based; settings: Human alphaherpesvirus 1
Description: as §1, §2, §3, §4, §5

[8] = in vivo; set-up: species or system mice strain C57BL/6J; settings: male, C57BL/6J, mouse, po, 10 mg/kg
Description: Pharmcokinetic parameters were determined for Example 7, 7(−), 7(+) and 7c in male mice strain C57BL/6J at an intraveneous (i.v.) dose of 5 mg/kg (5% DMSO in heterologous plasma, 2.5 mL/kg) and an oral dose (p.o) of 10 mg/kg (DMSO/0.5% HPMC (5:95), 5 mL/kg).

SMILES	IC50 [1]	solubility at 24 h ([2]; aqueous buffer, kinetic from dmso stock, pH 7.4, shake flask, 24 h incubation, rt, read-out: Solubility [μM] (PBS, pH 7.4, 200 μM Test concentration))	increase of aqueous solubility in comparison to Example 87 (WO2001/047904) ([2]; pH 7.4)	ED50 [3]	IC50 [4]	carbonic anhydrase inhibition [4]	ED50 [5]	IC50 [6]	IC50 [7]	AUC [8]	Cmax [8]
Cc1nc(N(C)C(=O)Cc2ccc(-c3cc(F)ccc3F)cc2)sc1S(C)(=N)=O (racemic) [Example 7, 2-(2′,5′-Difluoro-[1,1′-biphenyl]-4-yl)-N-methyl-N-(4-methyl-5-(S-methylsulfonimidoyl)thiazol-2-yl)acetamide]	25 to 100 nM	5 µM (≈ 2.18 µg/mL)	at least one order of mangitude	< 10 mg/kg	> 10 µM	no or significantly reduced carbonic anhydrase inhibition	< 10 mg/kg	25 to 100 nM	25 to 100 nM	–	–
Cc1nc(N(C)C(=O)Cc2ccc(-c3cc(F)ccc3F)cc2)sc1[S@@](C)(=N)=O [Example 7(−), (−)-(S)-2-(2′,5′-Difluoro-[1,1′-biphenyl]-4-yl)-N-methyl-N-(4-methyl-5-(S-methylsulfonimidoyl)thiazol-2-yl)acetamide]	10 to 50 nM	–	–	< 5 mg/kg	> 10 µM	no or significantly reduced carbonic anhydrase inhibition	–	10 to 50 nM	10 to 50 nM	–	–
Cc1nc(N(C)C(=O)Cc2ccc(-c3ccccn3)cc2)sc1[S@](C)(=N)=O (racemic) [Example 7c, N-Methyl-N-[4-methyl-5-(methylsulfonimidoyl)thiazol-2-yl]-2-[4-(2-pyridyl)phenyl]acetamide]	150 to 600 nM	–	–	–	> 10 µM	–	–	200 to 1500 nM	150 to 600 nM	22500 ng·h/mL	4290 ng/mL
Cc1nc(N(C)C(=O)Cc2ccc(-c3ccccn3)cc2)sc1S(=N)(=O)C1CC1 (racemic) [Example 7b, N-[5-(Cyclopropylsulfonimidoyl)-4-methyl-thiazol-2-yl]-N-methyl-2-[4-(2-pyridyl)phenyl]acetamide]	100 to 400 nM	–	–	–	> 10 µM	no or significantly reduced carbonic anhydrase inhibition	–	250 to 1000 nM	100 to 400 nM	–	–
Cc1nc(N(C)C(=O)Cc2ccc(-c3ccccn3)cc2)sc1[S@](C)(=N)=O (single isomer, unassigned) [Example 7c(+), (+)-N-Methyl-N-(4-methyl-5-(S-methylsulfonimidoyl)thiazol-2-yl)-2-(4-(pyridin-2-yl)phenyl)acetamide]	300 to 750 nM	–	–	–	> 10 µM	no or significantly reduced carbonic anhydrase inhibition	–	500 to 1500 nM	300 to 750 nM	31200 ng·h/mL	5700 ng/mL
Cc1nc(N(C)C(=O)Cc2ccc(-c3ccccn3)cc2)sc1[S@@](C)(=N)=O (single isomer, unassigned) [Example 7c(−), (−)-N-Methyl-N-(4-methyl-5-(S-methylsulfonimidoyl)thiazol-2-yl)-2-(4-(pyridin-2-yl)phenyl)acetamide]	75 to 300 nM	–	–	–	> 10 µM	no or significantly reduced carbonic anhydrase inhibition	–	100 to 750 nM	75 to 300 nM	38000 ng·h/mL	6650 ng/mL
